Results as given in patent US11485708B2, “Compounds for treatment of PD-L1 diseases” (CHEMOCENTRYX, INC., priority 2019, dated 2022).
pIC50: −log10 of the molar value.

biological target: human PD-L1 / Human PD-1 (Homo sapiens (Human), UniProt Q9NZQ7); test: Enzyme-Linked Immunosorbent Assay (ELISA), PD-1/PD-L1 binding; details: plates coated with human PD-L1, biotinylated human PD-1 added
Method: 96 Well plates were coated with 1 μg/mL of human PD-L1 (obtained from R&D) in PBS overnight at 4′° C. The wells were then blocked with 2% BSA in PBS (W/V) with 0.05% TWEEN-20 for 1 hour at 37′° C. The plates were washed 3 times with PBS/0.05% TWEEN-20 and the compounds were serial diluted (1:5) in dilution medium and added to the ELISA plates. Human PD-1 and biotin 0.3 μg/mL (ACRO Biosystems) were added and incubated for 1 hour at 37° C. then washed 3 times with PBS/0.05% TWEEN-20. A second block was performed with 2% BSA in PBS (WNV)/0.05% TWEEN-20 for 10 min at 37° C. and the plates were washed 3 times with PBS/0.05% TWEEN-20. Streptavidin-HIRP was added for 1 hour at 37° C. then the plates were washed 3 times with PBS/0.05% TWEEN-20. TMB substrate was added and reacted for 20 min at 37° C. A stop solution (2 N aqueous H2SO4) was added. The absorbance was read at 450 nm using a micro-plate spectrophotometer.

Sequence of human PD-L1 / Human PD-1 (Q9NZQ7 19-239): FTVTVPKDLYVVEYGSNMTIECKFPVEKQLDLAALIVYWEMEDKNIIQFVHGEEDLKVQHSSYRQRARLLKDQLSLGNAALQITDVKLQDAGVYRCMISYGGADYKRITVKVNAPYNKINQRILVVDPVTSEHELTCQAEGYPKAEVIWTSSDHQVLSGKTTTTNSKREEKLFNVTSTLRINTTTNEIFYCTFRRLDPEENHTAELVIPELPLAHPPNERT

SMILES	pIC50
COc1cc(-c2cccc(-c3cccc(-c4cc(F)c(CN)c(OC)c4)c3C)c2C)ccc1CC(=O)O [Compd 1.001]	5.00 to 6.00
COc1cc(-c2cccc(-c3cccc(NC4CCNCC4)c3C)c2C)cc(F)c1CN [Compd 1.003, N-(4″-(aminomethyl)-3″-fluoro-5″-methoxy-2,2′-dimethyl-[1,1′:3′,1″-terphenyl]-3-yl)piperidin-4-amine]	> 6.00
COc1cc(-c2cccc(-c3cccc(-c4cc(F)c(CN)c(OC)c4)c3C)c2C)ccc1C(=O)O [Compd 1.005]	5.00 to 6.00
COc1cc(-c2cccc(-c3cccc(-n4ccnc4)c3C)c2C)cc(F)c1CN1CC(C(=O)O)C1 [Compd 1.006]	5.00 to 6.00
COc1cc(-c2cccc(-c3ccc4c(c3)OC(C3=NCCN3)CO4)c2C)cc(F)c1CN (centres unmarked) [Compd 1.009]	5.00 to 6.00
COc1cc(-c2cccc(-c3cccc(OC4CCCNC4)c3C)c2C)cc(F)c1CN (centres unmarked) [Compd 1.014]	5.00 to 6.00
COC(=O)C1=Cc2cc(-c3cccc(-c4cc(F)c(CN)c(OC)c4)c3C)ccc2OC1 [Compd 1.016, Methyl 6-(4′-(aminomethyl)-3′-fluoro-5′-methoxy-2-methyl-[1,1′-biphenyl]-3-yl)-2H-chromene-3-carboxylate]	> 6.00
COc1cc(-c2cccc(-c3ccc4c(c3C)CNCC4)c2C)cc(F)c1CNCCO [Compd 1.020]	5.00 to 6.00
COc1cc(-c2cccc(-c3cc(F)c(CN)c(OC)c3)c2C)ccc1F [Compd 1.021]	5.00 to 6.00
COc1cc(-c2cccc(-c3cccc4c3CCNC4)c2C)cc(F)c1CN [Compd 1.022]	5.00 to 6.00
COc1cc(-c2cccc(-c3cccc(CCN)c3C)c2C)cc(F)c1CN [Compd 1.023]	5.00 to 6.00
COc1ccc(-c2cccc(-c3cc(F)c(CN)c(OC)c3)c2C)cc1F [Compd 1.025]	5.00 to 6.00
COc1ccc(-c2cccc(-c3cc(F)c(CN)c(OC)c3)c2C)c(F)c1 [Compd 1.030]	5.00 to 6.00
COc1cc(-c2cccc(-c3cccc(-c4cc(F)c(CNCCO)c(OC)c4)c3C)c2C)cc(F)c1CN [Compd 1.035]	> 6.00
COc1cc(-c2cccc(-c3cccc(-c4cc(F)c(CN)c(OC)c4)c3C)c2C)ccc1CN [Compd 1.036]	> 6.00
COc1cc(-c2cccc(-c3cccc(-c4ccc(CN)c(F)c4)c3C)c2C)cc(F)c1CN [Compd 1.037]	> 6.00
COc1cc(-c2cccc(-c3cccc(-c4cc(F)c(CCN)c(OC)c4)c3C)c2C)cc(F)c1CN [Compd 1.039]	> 6.00
COc1cc(-c2cccc(-c3cccc(-c4ccc5c(c4)CCNC5)c3C)c2C)cc(F)c1CNCCO [Compd 1.040, 2-(((3-fluoro-5-methoxy-2′,2″-dimethyl-3″-(1,2,3,4-tetrahydroisoquinolin-6-yl)-[1,1′:3′,1″-terphenyl]-4-yl)methyl)amino)ethan-1-ol]	> 6.00
COc1cc(-c2cccc(-c3cccc(-c4cc(F)c(CNCCS(=O)(=O)O)c(OC)c4)c3C)c2C)cc(F)c1CNCCS(=O)(=O)O [Compd 1.041, 2,2′-(((3,3′″-difluoro-5,5′″-dimethoxy-2′,2″-dimethyl-[1,1′:3′,1″:3″,1′″-quaterphenyl]-4,4′″-diyl)bis(methylene))bis(azanediyl))bis(ethane-1-sulfonic Acid)]	> 6.00
Cc1c(-c2ccc3c(c2)CCNC3)cccc1-c1cccc(-c2ccc3c(c2)CCNC3)c1C [Compd 1.042]	> 6.00
COc1cc(-c2cccc(-c3cccc(-c4cc(F)c(CN5CCC(O)CC5)c(OC)c4)c3C)c2C)cc(F)c1CN1CCC(O)CC1 [Compd 1.043, 1,1′-((3,3′″-difluoro-5,5′″-dimethoxy-2′,2″-dimethyl-[1,1′:3′,1″:3″,1′″-quaterphenyl]-4,4′″-diyl)bis(methylene))bis(piperidin-4-ol)]	> 6.00
COc1cc(-c2cccc(-c3cccc(-c4cc(F)c(CCN)c(OC)c4)c3C)c2C)cc(F)c1CCN [Compd 1.045]	> 6.00
COc1cc(-c2cccc(-c3cccc(-c4cc(F)c(CN[C@@H]5CCC[C@@H]5O)c(OC)c4)c3C)c2C)cc(F)c1CN[C@@H]1CCC[C@@H]1O [Compd 1.046]	> 6.00
